Assay results reported in patent publication US9908826B2, “Synthetic method” (University Court of the University of St. Andrews, priority 2014, dated 2018).

Tests used:
human oestrogen receptor [1] = target: T1, human oestrogen receptor (Homo sapiens, UniProt P03372); assay: recombinant yeast oestrogen screen (YES) assay; assay type: cell-based
T1 construct: expressed in transfected cells; host or cells: recombinant yeast (hER yeast strain developed by Glaxo Welcome)
T1 sequence (P03372 1-595): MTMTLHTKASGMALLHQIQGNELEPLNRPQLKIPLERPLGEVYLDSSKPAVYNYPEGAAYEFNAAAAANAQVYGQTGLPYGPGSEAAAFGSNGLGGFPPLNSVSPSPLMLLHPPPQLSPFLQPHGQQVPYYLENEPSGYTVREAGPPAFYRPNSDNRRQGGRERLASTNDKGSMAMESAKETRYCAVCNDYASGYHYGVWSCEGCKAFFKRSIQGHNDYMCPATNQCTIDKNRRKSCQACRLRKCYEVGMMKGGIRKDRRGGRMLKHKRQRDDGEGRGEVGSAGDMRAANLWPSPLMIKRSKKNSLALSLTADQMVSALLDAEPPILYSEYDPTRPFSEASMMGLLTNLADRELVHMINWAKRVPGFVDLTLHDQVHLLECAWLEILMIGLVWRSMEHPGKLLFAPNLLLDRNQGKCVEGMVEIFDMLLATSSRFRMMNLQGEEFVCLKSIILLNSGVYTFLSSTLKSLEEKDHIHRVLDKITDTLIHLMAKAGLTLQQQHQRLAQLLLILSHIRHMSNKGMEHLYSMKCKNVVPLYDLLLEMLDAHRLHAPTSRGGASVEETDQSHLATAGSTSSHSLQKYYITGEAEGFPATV
Excerpt: In order to test our hypothesis that 3-nonylphenol might show less oestrogenicity than either the linear or the 4-nonylphenol, we have carried out a yeast oestrogen screen (YES) assay which is specific for oestradiol mimics.
The recombinant hER yeast strain was developed by Glaxo Welcome and details of the yeast oestrogen screen have been described previously (Routledge and Sumpter, 1996).
In brief, yeast cells were transfected with the human oestrogen receptor gene together with expression plasmids; the oestrogen response element and the lac-Z gene encoding the enzyme β-galactosidase. The yeast cells were incubated in medium containing the test chemical and the chromogenic substrate, […] (CPRG), and active ligands induced β-gal expression. The β-galactosidase secreted into the medium causes the yellow CPGR to change into a red product, and this is measurable by absorbance.
The medium components were prepared and the standard assay procedure was followed.^32 Chemicals were serially diluted in ethanol and 10 μl volumes were transferred to 96-well flat-bottom plates where the ethanol was allowed to evaporate to dryness. Then, 200 μl medium containing CPRG and yeast (final cell number of 5×10^5 cells/ml) was added to each well. Included with every assay was a negative control, ethanol, and a positive control, 17 β-oestradiol (stock solution of 17 β-oestradiol (2×10^−7 mol dm^−3) serially diluted in ethanol to achieve final concentrations of 1×10^−8 mol dm^−3 to 4.88×10^−12 mol dm^−3 in the wells).
The absorbance values were corrected for cell density using the following equation: Corrected value=chemical540nm−(chemical620nm−ethanol blank620nm).
All chemicals were tested in duplicate and each YES was carried out at least three times.

[2] = system: male Japanese Medaka fish; details: post-hatching stages of development, references 12, 13, 28; cited from earlier work
human oestrogen receptor [3] = target: T1, human oestrogen receptor; details: studied before, reference 13; cited from earlier work
[4] = YES assay, initial 3-NP sample (Pd/C, contains small amounts of ring hydrogenated product)
[5] = second sample, [RhCl(PPh3)3] hydrogenation, no ring hydrogenation products

CCCCCCCCCc1cccc(O)c1 [3-NP, 3-Nonylphenol]
oestrogenicity relative to 17 β-oestradiol (times as oestrogenic) (human oestrogen receptor [1]; YES assay (conclusion)): ~10^−6 times | oestrogenic response in the YES assay (in words) (human oestrogen receptor [1]; YES assay, FIG. 1 and FIG. 2): full dose response curve | times less potent in oestrogenicity than the banned substance (4-nonylphenol) (human oestrogen receptor [1]; YES assay, 3-nonylphenol prepared by ethenolysis of cardanol (conclusion)): at least 150 times | potency, fold less than 4-NP (mixed isomers) (human oestrogen receptor [1]; [4]): ~300 fold | potency, fold less than 17 β-oestradiol (human oestrogen receptor [1]; [4]): approximately 1.5×10^6 fold | reduction in oestrogenic activity on moving the linear alkyl group from the 4- to the 3-position (vs 4-n-NP) (human oestrogen receptor [1]; YES assay, tested 1×10^−3 to 5×10^−7 mol dm^−3, initial sample (Pd/C hydrogenation)): 10 fold | orders of magnitude less oestrogenic than 4-nonylphenol (human oestrogen receptor [1]; oestrogenicity studies, summary statement): 2 orders of magnitude | increase in oestrogenicity of second sample versus initial sample (human oestrogen receptor [1]; [5]): 2 fold | oestrogenicity, times lower than that of 4-NP mixed isomers (human oestrogen receptor [1]; [5]): 150 times

CCCCCCCCCc1ccc(O)cc1 [4-NP, 4-nonylphenol]
endocrine disrupting effect [2]: induce testes-ova

CCCCCCCCCc1ccc(O)cc1 [4-n-NP, 4-nonylphenol]
oestrogenicity compared with commercial 4-nonylphenol with mixed alkyl chains (human oestrogen receptor [3]): lower oestrogenicity
